Measurements taken from PubChem BioAssay (NCI).
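48-hour exposure; five concentrations; linearly interpolated endpoints. Abbreviation: GI50, concentration required for 50% inhibition of growth. TGI is the concentration that stops growth completely.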

Experiments:
Assay in all cases: NCI-60 cell line screen, 48 h; in the data active = GI50 below about 0.43 µM; inactive = the rest
HS 578T breast = test system: HS 578T breast
786-0 renal = test system: 786-0 renal
NCI-H522 lung = test system: NCI-H522 lung
T-47D breast = test system: T-47D breast
HCC-2998 colon = test system: HCC-2998 colon
SNB-19 CNS = test system: SNB-19 CNS
U251 CNS = test system: U251 CNS
COLO 205 colon = test system: COLO 205 colon
RXF 393 renal = test system: RXF 393 renal
M14 melanoma = test system: M14 melanoma
SF-268 CNS = test system: SF-268 CNS
RPMI-8226 leukemia = test system: RPMI-8226 leukemia
HCT-116 colon = test system: HCT-116 colon
MALME-3M melanoma = test system: MALME-3M melanoma
CCRF-CEM leukemia = test system: CCRF-CEM leukemia
BT-549 breast = test system: BT-549 breast
SF-539 CNS = test system: SF-539 CNS
SNB-75 CNS = test system: SNB-75 CNS
LOX IMVI melanoma = test system: LOX IMVI melanoma
CAKI-1 renal = test system: CAKI-1 renal
HT29 colon = test system: HT29 colon
A498 renal = test system: A498 renal
NCI-H23 lung = test system: NCI-H23 lung
HCT-15 colon = test system: HCT-15 colon
HL-60(TB) leukemia = test system: HL-60(TB) leukemia
UACC-257 melanoma = test system: UACC-257 melanoma
A549 NSCLC = test system: A549 NSCLC
OVCAR-3 ovarian = test system: OVCAR-3 ovarian
OVCAR-8 ovarian = test system: OVCAR-8 ovarian
SR leukemia = test system: SR leukemia
SK-MEL-2 melanoma = test system: SK-MEL-2 melanoma
NCI-H226 lung = test system: NCI-H226 lung
DU-145 prostate = test system: DU-145 prostate
NCI-H460 lung = test system: NCI-H460 lung
ACHN renal = test system: ACHN renal
UO-31 renal = test system: UO-31 renal
SF-295 CNS = test system: SF-295 CNS
UACC-62 melanoma = test system: UACC-62 melanoma
KM12 colon = test system: KM12 colon
SK-MEL-28 melanoma = test system: SK-MEL-28 melanoma
SK-MEL-5 melanoma = test system: SK-MEL-5 melanoma
NCI/ADR-RES ovarian = test system: NCI/ADR-RES ovarian
MDA-MB-435 = test system: MDA-MB-435
OVCAR-4 ovarian = test system: OVCAR-4 ovarian
SN12C renal = test system: SN12C renal
TK-10 renal = test system: TK-10 renal
PC-3 prostate = test system: PC-3 prostate
HOP-62 NSCLC = test system: HOP-62 NSCLC
SK-OV-3 ovarian = test system: SK-OV-3 ovarian
MDA-MB-231 breast = test system: MDA-MB-231 breast
MOLT-4 leukemia = test system: MOLT-4 leukemia
K-562 leukemia = test system: K-562 leukemia
EKVX NSCLC = test system: EKVX NSCLC
MCF7 breast = test system: MCF7 breast
OVCAR-5 ovarian = test system: OVCAR-5 ovarian
SW-620 colon = test system: SW-620 colon
IGROV1 ovarian = test system: IGROV1 ovarian
HOP-92 NSCLC = test system: HOP-92 NSCLC

O=C(/C=C/c1ccco1)c1cccc(Nc2nc(Nc3ccccc3)nc(Nc3ccccc3)n2)c1
> 31.8 µM: TGI (MOLT-4 leukemia)
> 56.1 µM: TGI (K-562 leukemia)
27.1 µM: TGI (OVCAR-3 ovarian)
8.15 µM: TGI (RXF 393 renal)
> 27.1 µM: TGI (NCI-H460 lung)
> 83.2 µM: TGI (OVCAR-8 ovarian)
inactive: GI50 (HS 578T breast) 12.6 µM | GI50 (786-0 renal) 8.49 µM | GI50 (NCI-H522 lung) 44.6 µM | GI50 (T-47D breast) 3.61 µM | GI50 (HCC-2998 colon) 25.7 µM | GI50 (SNB-19 CNS) > 100 µM | GI50 (U251 CNS) 16 µM | GI50 (COLO 205 colon) 2.29 µM | GI50 (RXF 393 renal) 1.36 µM | GI50 (M14 melanoma) 37.7 µM | GI50 (SF-268 CNS) 28.7 µM | GI50 (HCT-116 colon) 2.47 µM | GI50 (MALME-3M melanoma) > 66.7 µM | GI50 (CCRF-CEM leukemia) 3.07 µM | GI50 (BT-549 breast) 19 µM | GI50 (SF-539 CNS) 44.5 µM | GI50 (SNB-75 CNS) 2.16 µM | GI50 (LOX IMVI melanoma) 17.9 µM | GI50 (CAKI-1 renal) 23.2 µM | GI50 (HT29 colon) 17.2 µM | GI50 (A498 renal) 0.444 µM | GI50 (NCI-H23 lung) 26.1 µM | GI50 (HCT-15 colon) 5.12 µM | GI50 (HL-60(TB) leukemia) > 29.6 µM | GI50 (UACC-257 melanoma) > 44.7 µM | GI50 (OVCAR-3 ovarian) 2.83 µM | GI50 (OVCAR-8 ovarian) 10 µM | GI50 (SR leukemia) 5.01 µM | GI50 (SK-MEL-2 melanoma) 20.5 µM | GI50 (NCI-H226 lung) 18.3 µM | GI50 (DU-145 prostate) 14.5 µM | GI50 (NCI-H460 lung) 1.4 µM | GI50 (ACHN renal) 30.5 µM | GI50 (UO-31 renal) 3.97 µM | GI50 (SF-295 CNS) 2.94 µM | GI50 (UACC-62 melanoma) 48.8 µM | GI50 (KM12 colon) 6.06 µM | GI50 (SK-MEL-28 melanoma) 23.7 µM | GI50 (SK-MEL-5 melanoma) 22 µM | GI50 (NCI/ADR-RES ovarian) 36.3 µM | GI50 (MDA-MB-435) 37.7 µM | GI50 (OVCAR-4 ovarian) 10.6 µM | GI50 (SN12C renal) 35 µM | GI50 (TK-10 renal) 55.3 µM | GI50 (PC-3 prostate) 5.13 µM | GI50 (HOP-62 NSCLC) > 55.4 µM | GI50 (SK-OV-3 ovarian) > 86.6 µM | GI50 (MDA-MB-231 breast) 5.4 µM | GI50 (MOLT-4 leukemia) 4.34 µM | GI50 (EKVX NSCLC) 9.82 µM | GI50 (MCF7 breast) 1.92 µM | GI50 (OVCAR-5 ovarian) > 100 µM | GI50 (SW-620 colon) 18.2 µM | GI50 (IGROV1 ovarian) 2.87 µM
> 69.6 µM: TGI (UO-31 renal)
5.47 µM: TGI (RPMI-8226 leukemia)
> 25.3 µM: TGI (SF-295 CNS)
> 82.7 µM: TGI (HS 578T breast)
> 82.9 µM: TGI (BT-549 breast)
35.3 µM: TGI (HCT-116 colon)
> 54.3 µM: TGI (HL-60(TB) leukemia)
> 38.2 µM: TGI (A549 NSCLC)
> 82 µM: TGI (NCI-H226 lung)
14.3 µM: TGI (COLO 205 colon)
> 24.1 µM: TGI (CCRF-CEM leukemia) | TGI (SR leukemia)
> 100 µM: TGI (786-0 renal) | TGI (NCI-H522 lung) | TGI (T-47D breast) | TGI (HCC-2998 colon) | TGI (SNB-19 CNS) | TGI (U251 CNS) | TGI (M14 melanoma) | TGI (SF-268 CNS) | TGI (MALME-3M melanoma) | TGI (SF-539 CNS) | TGI (LOX IMVI melanoma) | TGI (CAKI-1 renal) | TGI (HT29 colon) | TGI (NCI-H23 lung) | TGI (HCT-15 colon) | TGI (SK-MEL-2 melanoma) | TGI (DU-145 prostate) | TGI (ACHN renal) | TGI (UACC-62 melanoma) | TGI (KM12 colon) | TGI (SK-MEL-28 melanoma) | TGI (SK-MEL-5 melanoma) | TGI (NCI/ADR-RES ovarian) | TGI (MDA-MB-435) | TGI (OVCAR-4 ovarian) | TGI (SN12C renal) | TGI (TK-10 renal) | TGI (PC-3 prostate) | TGI (HOP-62 NSCLC) | TGI (SK-OV-3 ovarian) | TGI (MDA-MB-231 breast) | TGI (EKVX NSCLC) | TGI (OVCAR-5 ovarian) | TGI (SW-620 colon) | TGI (IGROV1 ovarian)
> 83.8 µM: TGI (UACC-257 melanoma)
> 52.4 µM: TGI (MCF7 breast)
> 69.5 µM: TGI (SNB-75 CNS)
1.77 µM: TGI (A498 renal)
active: GI50 (RPMI-8226 leukemia) 0.279 µM | GI50 (A549 NSCLC) 0.357 µM

C=C(C=O)[C@@H]1CC=C(C=O)CC1
11.2 µM: TGI (DU-145 prostate)
42.4 µM: TGI (HS 578T breast)
> 77.2 µM: TGI (NCI-H460 lung)
27.8 µM: TGI (KM12 colon)
54.6 µM: TGI (TK-10 renal)
20.1 µM: TGI (MDA-MB-231 breast)
> 46.5 µM: TGI (SK-MEL-5 melanoma)
12.2 µM: TGI (UACC-62 melanoma)
50.5 µM: TGI (SK-OV-3 ovarian)
97.3 µM: TGI (SF-295 CNS)
71.2 µM: TGI (SNB-19 CNS)
> 76.7 µM: TGI (HOP-62 NSCLC)
26.4 µM: TGI (T-47D breast)
5.87 µM: TGI (SK-MEL-28 melanoma)
80 µM: TGI (786-0 renal)
> 26 µM: TGI (MALME-3M melanoma)
6.71 µM: TGI (U251 CNS)
7.58 µM: TGI (HOP-92 NSCLC)
77.8 µM: TGI (A498 renal)
> 76 µM: TGI (UO-31 renal)
33.5 µM: TGI (SF-539 CNS)
6.63 µM: TGI (RPMI-8226 leukemia)
inactive: GI50 (HS 578T breast) 3.36 µM | GI50 (786-0 renal) 16.8 µM | GI50 (NCI-H522 lung) 37.8 µM | GI50 (T-47D breast) 3.06 µM | GI50 (HCC-2998 colon) 11.2 µM | GI50 (SNB-19 CNS) 17.4 µM | GI50 (U251 CNS) 2.4 µM | GI50 (RXF 393 renal) 3.72 µM | GI50 (SF-268 CNS) 2.94 µM | GI50 (RPMI-8226 leukemia) 2.14 µM | GI50 (MALME-3M melanoma) 4.39 µM | GI50 (BT-549 breast) 3.26 µM | GI50 (SF-539 CNS) 9.88 µM | GI50 (SNB-75 CNS) 15.9 µM | GI50 (CAKI-1 renal) 29.1 µM | GI50 (HT29 colon) 3.54 µM | GI50 (A498 renal) 28.8 µM | GI50 (NCI-H23 lung) 3.83 µM | GI50 (HCT-15 colon) 2.4 µM | GI50 (HL-60(TB) leukemia) 2.48 µM | GI50 (UACC-257 melanoma) 15 µM | GI50 (A549 NSCLC) 35.1 µM | GI50 (OVCAR-8 ovarian) 3.69 µM | GI50 (SR leukemia) 5.48 µM | GI50 (SK-MEL-2 melanoma) 25.6 µM | GI50 (NCI-H226 lung) 21.1 µM | GI50 (DU-145 prostate) 3.44 µM | GI50 (NCI-H460 lung) 13.8 µM | GI50 (ACHN renal) 2.75 µM | GI50 (UO-31 renal) 5.3 µM | GI50 (SF-295 CNS) 12 µM | GI50 (UACC-62 melanoma) 3.14 µM | GI50 (KM12 colon) 4.21 µM | GI50 (SK-MEL-28 melanoma) 2.43 µM | GI50 (SK-MEL-5 melanoma) 3.9 µM | GI50 (NCI/ADR-RES ovarian) 3.89 µM | GI50 (MDA-MB-435) 4.21 µM | GI50 (OVCAR-4 ovarian) 4.19 µM | GI50 (SN12C renal) 4.31 µM | GI50 (TK-10 renal) 8.76 µM | GI50 (PC-3 prostate) 4.12 µM | GI50 (HOP-62 NSCLC) 24.8 µM | GI50 (SK-OV-3 ovarian) 20.1 µM | GI50 (MDA-MB-231 breast) 6.88 µM | GI50 (MOLT-4 leukemia) 3.69 µM | GI50 (K-562 leukemia) 1.7 µM | GI50 (HOP-92 NSCLC) 2.38 µM | GI50 (EKVX NSCLC) 14.5 µM | GI50 (MCF7 breast) 2.96 µM | GI50 (OVCAR-5 ovarian) 26.5 µM | GI50 (IGROV1 ovarian) 3.19 µM
73 µM: TGI (OVCAR-5 ovarian)
> 23.3 µM: TGI (IGROV1 ovarian)
67.6 µM: TGI (EKVX NSCLC)
98.7 µM: TGI (NCI-H226 lung)
> 35.5 µM: TGI (MCF7 breast)
16.1 µM: TGI (SF-268 CNS)
10.1 µM: TGI (HCT-15 colon)
93.5 µM: TGI (HCC-2998 colon)
57.9 µM: TGI (UACC-257 melanoma)
74.3 µM: TGI (MDA-MB-435)
> 91.7 µM: TGI (A549 NSCLC)
24.2 µM: TGI (PC-3 prostate)
9.65 µM: TGI (ACHN renal)
> 30.5 µM: TGI (BT-549 breast)
33.9 µM: TGI (SN12C renal)
> 100 µM: TGI (NCI-H522 lung) | TGI (RXF 393 renal) | TGI (SNB-75 CNS) | TGI (CAKI-1 renal) | TGI (HT29 colon) | TGI (NCI-H23 lung) | TGI (HL-60(TB) leukemia) | TGI (OVCAR-8 ovarian) | TGI (SR leukemia) | TGI (NCI/ADR-RES ovarian) | TGI (OVCAR-4 ovarian) | TGI (MOLT-4 leukemia) | TGI (K-562 leukemia)
92.5 µM: TGI (SK-MEL-2 melanoma)
